According to patent US9512420B2, “Use of N-acetylneuraminic acid aldolase in catalytic synthesis of N-acetylneuraminic acid” (Nanjing University of Technology, priority 2013, dated 2016):
Values belong to the molecule of their own block, whether it stands above or below them.

Experiments:
[1] = molecular target: CgNal (Corynebacterium glutamicum, UniProt Q8NMD2); experiment: Effects of metal ions and surfactant on the CgNal activity; type: biochemical, Corynebacterium glutamicum ATCC 13032; settings: for effect on reaction of CgNal in the decomposing Neu5Ac direction / effect on reaction of CgNal in the synthesizing Neu5Ac direction: pH 7.5; for overall effect on CgNal enzyme activity / effect on superiority of Neu5Ac synthesis over Neu5Ac decomposition: pH 8.5
[2] = substrate: CC(=O)C(=O)O; experiment: purified protein, by the assay type; settings: substrate of CgNal, co-substrate fixed at 100 mM for ManNAc and pyruvic acid, 37.0 °C
[3] = substrate: CC(=O)N[C@@H]1C(O)O[C@H](CO)[C@@H](O)[C@@H]1O; experiment: purified protein, by the assay type; settings: substrate of CgNal, co-substrate fixed at 100 mM for ManNAc and pyruvic acid, 37.0 °C
[4] = substrate: CC(=O)N[C@H]1[C@H]([C@H](O)[C@H](O)CO)OC(O)(C(=O)O)C[C@@H]1O; experiment: purified protein, by the assay type; settings: substrate of CgNal, co-substrate fixed at 100 mM for ManNAc and pyruvic acid, 37.0 °C

Molecule: CCCCCCCCCCCCCCCC[N+](C)(C)C.[Br-] [CTAB]
effect on reaction of CgNal in the decomposing Neu5Ac direction [1]: inhibited
overall effect on CgNal enzyme activity [1]: decreased the enzyme activity

effect on reaction of CgNal in the decomposing Neu5Ac direction ([1]; 5 mM additive): inhibited
effect on reaction of CgNal in the synthesizing Neu5Ac direction ([1]; 5 mM additive): promoted
effect on superiority of Neu5Ac synthesis over Neu5Ac decomposition ([1]; 5 mM additive): promoted
overall effect on CgNal enzyme activity ([1]; 5 mM additive): decreased the enzyme activity
Molecule: CCCCCCCCCCCCOS(=O)(=O)[O-].[Na+] [SDS]

Molecule: CoCl2
effect on reaction of CgNal in the decomposing Neu5Ac direction [1]: inhibited
effect on reaction of CgNal in the synthesizing Neu5Ac direction [1]: promoted

Molecule: NiSO4
effect on reaction of CgNal in the decomposing Neu5Ac direction [1]: inhibited
effect on reaction of CgNal in the synthesizing Neu5Ac direction [1]: promoted

Molecule: ZnCl2
effect on reaction of CgNal in the decomposing Neu5Ac direction [1]: inhibited
effect on reaction of CgNal in the synthesizing Neu5Ac direction [1]: promoted
effect on superiority of Neu5Ac synthesis over Neu5Ac decomposition [1]: promoted
overall effect on CgNal enzyme activity [1]: decreased the enzyme activity

B1: CgNal (Corynebacterium glutamicum ATCC 13032) (protein)
chain: MASATFTGVIPPVMTPLHADGSVDVESLRKLVDHLINGGVDGLFALGSSGEAAFLTRAQRKLALTTIIEHTAGRVPVTAGVIETTTARVIELVEDALEAGAEGLVATAPFYTRTHDVEIEEHFRKIHAAAPELPLFAYNIPVSVHSNLNPVMLLTLAKDGVLAGTKDSSGNDGAIRSLIEARDDAGLTEQFKILTGSETTVDFAYLAGADGVVPGLGNVDPAAYAALAKLCLDGKWAEAAALQKRINHLFHIVFVGDTSHMSGSSAGLGGFKTALAHLGIIESNAMAVPHQSLSDEETARIHAIVDEFLYTA
Km ([2]; other: pH 7.5, pH 7.5): 14.7 mM
Vmax ([2]; other: pH 7.5, pH 7.5): 10.98 U/mg
Km ([2]; other: pH 8.5, pH 8.5): 72.4 mM
Vmax ([2]; other: pH 8.5, pH 8.5): 76.64 U/mg
Km ([3]; other: pH 7.5, pH 7.5): 53.3 mM
Vmax ([3]; other: pH 7.5, pH 7.5): 10.2 U/mg
Km ([3]; other: pH 8.5, pH 8.5): 92.1 mM
Vmax ([3]; other: pH 8.5, pH 8.5): 73.2 U/mg
Km ([4]; other: pH 7.5, pH 7.5): 33.5 mM
Vmax ([4]; other: pH 7.5, pH 7.5): 16.74 U/mg
Km ([4]; other: pH 8.5, pH 8.5): 87.7 mM
Vmax ([4]; other: pH 8.5, pH 8.5): 79.6 U/mg
